Results published in US7981939B2, “Application of 2-bromide-isovanillin for the manufacture of a medicament for anti-cancer or/and radiation/chemotherapy sensitization” (Institute of Radiation Medicine, Academy of Military …, priority 2005, dated 2011).

Legend:
[1] = tested on: lung cancer cell line A549; test: Clonogenic assay, 6 days of continuous action, A549; type: cell-based
Method: (§1) Human cervical cancer cell line HeLa, human liver cancer cell line HepG2/7221/7402, human ovarian cancer cell line HOC8/A2780, human glioma cell line BT325, lung cancer cell line A549, brain metastatic lung cancer cell line BT72 and normal human hepatic cell line LO2 were all grown in DMEM liquid medium supplemented with 10% newborn calf serum. Human leukemia cell line Jurkat was grown in 1640 medium supplemented with 10% newborn calf serum. The above cell lines were cultured in a CO2 incubator at 5% CO2 at 37° C.
(§2) By way of example, human cervical cancer cell line HeLa, lung cancer cell line A549, and ovarian cancer cell lines A2780 and HOC8 were used to determine the killing of cancer cells by 2-bromo-isovanillin for 6 days. Specifically, four groups were formed according to the type of the cancer cells. The cancer cells were diluted as appropriate, and were respectively plated into Petri dishes with a diameter of […], the amount of the cells adjusted depending on the concentration of 2-bromo-isovanillin to be added. Once adherence was achieved, each cell type received dosages of 0, 5, 10, 15, 20, 25, 30 and 35 μmol/L in triplicates. After 6 days of continuous action, the medium was replaced by a drug-free DMEM liquid medium. […] Then the cell clones were counted. The experimental data were expressed as the mean of 2-4 experiments and were plotted as a growth curve of cancer cells.

[2] = tested on: ovarian cancer cell line A2780; test: Clonogenic assay, 6 days of continuous action, A2780; type: cell-based, human
Method: as §1, §2

[3] = tested on: HeLa, HepG2/7221/7402, HOC8/A2780, BT325, A549, BT72 and IB-4 cancer cell lines; test: Clonogenic assay, 24 hrs of continuous action, ten cancer cell lines; type: cell-based, human; details: 5, 10, 20 and 40 μmol/L
Method: as §1
By way of example, human cervical cancer cell line HeLa, human liver cancer cell lines HepG2/7221/7402, human ovarian cancer cell lines HOC8/A2780, human glioma cell line BT325, lung cancer cell line A549, brain metastatic lung cancer cell line BT72 and prostate cancer cell line IB-4 were used to determine the killing of cancer cells by 2-bromo-isovanillin for 24 hrs. Specifically, ten groups were formed according to the type of the cancer cells. The cancer cells were diluted as appropriate, and were respectively plated into Petri dishes with a diameter of […], the amount of the cells adjusted depending on the concentration of 2-bromo-isovanillin to be added. […] Then the cell clones were counted. The experimental data were expressed as the mean of […] and were plotted as a growth curve of cancer cells, as shown in FIG. 3.

[4] = tested on: leukemia cell line Jurkat; test: Apoptosis in Jurkat cells (Hoechst 33258/FDA staining, DNA gel electrophoresis, flow cytometry); type: cell-based, human
Method: as §1
3. Using the same procedure as described under items 1 and 2, the leukemia cells Jurkat were diluted, and plated into Petri dishes with a diameter of […], the amount of the cells adjusted depending on the concentration of 2-bromo-isovanillin to be added. Once adherence was achieved, the cells received dosages of 0, 10, 20, 30 and 40 μmol/L in triplicates. After 24 hrs of continuous action, the medium was replaced by a drug-free 1640 medium supplemented with 10% newborn calf serum. The cells were cultured for a total of 2 weeks. At the end of the culturing period, the cells were subjected to Hoechst 33258 and FDA double fluorescence staining and the results were plotted as an apoptosis curve, as shown in FIG. 4A.

[5] = tested on: prostate cancer cell line IB-4; test: G2/M arrest by flow cytometry, IB-4; type: cell-based; details: IB-4, 40 μmol/L, 24 hrs
Method: By way of example, human liver cancer cell lines HepG2 and 7402, human ovarian cancer cell lines HOC8 and A2780, human glioma cell line BT325, lung cancer cell line A549, brain metastatic lung cancer cell line BT72 and prostate cancer cell line IB-4 were used to investigate the G2/M arresting of solid tumor cells of different tissue origins by 2-bromo-isovanillin as measured by the ratio of cells at G2/M phase. Specifically, the cancer cells were divided into two groups, and were treated with 0 or 40 μmol/L 2-bromo-isovanillin for 24 hours. Then the cells were harvested and analyzed for changes in cell cycle and cell apoptosis by flow cytometry.

[6] = tested on: normal human hepatic cell line LO2; test: Cell cycle profile and apoptosis by flow cytometry, LO2; type: cell-based; details: LO2, 40 μmol/L, 24 hrs
Method: By way of example, human liver cancer cell line HepG2 and normal human hepatic cell line LO2 were used to study the inhibitory effect of 2-bromo-isovanillin on the growth of liver cancer cells and normal cells by clonogenic assay. Specifically, five groups were formed according to the drug concentration, and the liver cancer cells HepG2 and normal hepatic cells LO2 were respectively treated with 5, 10, 20, 40 and 80 μmol/L 2-bromo-isovanillin for 24 hrs. Then cell survival was measured by clonogenic assay (FIG. 8). In addition, the cell cycle profile and apoptotic effect were compared using flow cytometry.

c-myc protein = c-myc protein expression by Western immunoblotting, HeLa; type: cell-based, human; details: 40 μmol/L, 0-24 hrs, decrease more remarkable with time
Method: The expression level of c-myc protein in human cervical cancer cell line HeLa treated with 2-bromo-isovanillin was determined by Western immunoblotting. In the Western blotting, the mouse anti-human c-myc protein monoclonal antibody SC-40 (purchased from Santa Cruz) was used as the primary antibody, and the goat anti-mouse antibody IgG-HRP (purchased from Zhongshan Reagent Co.) was used as the secondary antibody. Total proteins from human cervical cancer cells HeLa treated with 40 μmol/L 2-bromo-isovanillin for 0, 4, 8, 12, 24 hrs were extracted according to conventional methods, quantified and subjected to SDS-PAGE electrophoresis, followed by transferring to a membrane and immunoblotting, using β-actin as control.

tumor cells = test: Tumor inhibition upon administration for 6 consecutive days (summary statement)

For `COc1ccc(C=O)c(Br)c1O` [2-bromo-isovanillin, 2-bromo-3-hydroxy-4-methoxybenzaldehyde], the survival rate ([1]; A549, 20 μmol/L) was “lower than 10%”, the proliferation ([1]; A549, 30 μmol/L) was “completely inhibited” and the survival rate ([2]; A2780, 20 μmol/L) was “lower than 10%”. For the same compound, the proliferation ([2]; A2780, 30 μmol/L) was “completely inhibited”, the “effect on the proliferation of all ten cancer cell lines” value [3] was “significant inhibitory effect” and the “apoptosis in Jurkat (flow cytometry)” value ([4]; 0, 20, 30 μmol/L, 24 hrs) was “significantly induced apoptosis”. The “DNA gel electrophoresis finding” value ([4]; Jurkat, 20, 30, 40 μmol/L, 2% agarose gel) was “DNA fragmentation bands characteristic of apoptosis”, the “dose inducing necrosis or M phase catastrophic death” value ([4]; Jurkat, 24 hrs, Hoechst 33258 and FDA double fluorescence staining) was no less than 40 µmol/L and the cell cycle effect [5] was “arrested at G2/M phase”. For the same compound, the “G2/M arrest and apoptosis in normal hepatic cells” value [6] was “did not result in G2/M arrest or significant cell apoptosis”, the “expression level of c-myc protein” value (c-myc protein) was “decreased” and the tumor inhibition (tumor cells) was 80-95%.
